In the assay the target is human RAF1 (Homo sapiens, UniProt P04049). Nature of the assay: Protein kinase assay (33P-ATP filter binding), human RAF1, 10-dose IC50. It is filed as biochemical. As to conditions: MEK1 (K97R) substrate 3 micromolar, ATP 10 micromolar, read-out: RAF-1 IC50. The procedure, abridged: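 Radiometric filter-binding format: 10 µM ATP, 3 µM MEK1 (K97R) as substrate for human RAF1, 2 hr at room temperature in 20 mM HEPES pH 7.5 with 10 mM MgCl2. Compounds were dispensed acoustically from DMSO. IC50 came from percent kinase activity relative to vehicle over a 10-dose series.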
human RAF1, sequence (P04049 whole entry): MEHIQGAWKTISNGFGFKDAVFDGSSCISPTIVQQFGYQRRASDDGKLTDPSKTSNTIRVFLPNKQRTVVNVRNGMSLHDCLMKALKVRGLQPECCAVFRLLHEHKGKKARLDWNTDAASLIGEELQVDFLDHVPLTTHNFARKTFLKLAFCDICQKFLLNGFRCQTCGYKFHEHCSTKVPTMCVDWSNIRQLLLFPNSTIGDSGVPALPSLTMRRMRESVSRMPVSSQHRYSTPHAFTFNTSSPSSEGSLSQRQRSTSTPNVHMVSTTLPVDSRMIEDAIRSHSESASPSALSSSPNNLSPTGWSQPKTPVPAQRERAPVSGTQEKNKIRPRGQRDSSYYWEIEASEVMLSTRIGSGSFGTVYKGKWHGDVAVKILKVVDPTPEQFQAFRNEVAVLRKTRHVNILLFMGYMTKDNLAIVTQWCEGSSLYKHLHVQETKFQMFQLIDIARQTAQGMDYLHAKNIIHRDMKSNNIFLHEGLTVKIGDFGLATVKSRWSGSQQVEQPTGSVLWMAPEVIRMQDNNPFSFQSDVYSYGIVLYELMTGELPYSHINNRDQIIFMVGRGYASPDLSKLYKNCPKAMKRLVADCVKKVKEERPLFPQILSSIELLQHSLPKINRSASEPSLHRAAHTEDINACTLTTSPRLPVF
With `Cc1ccc(NC(=O)N2CC[C@@H](OCC(F)(F)F)C2)cc1-c1cc(OCCO)nc(N2CCOCC2)c1` [Example 133, (3R)-N-[3-[2-(2-hydroxyethoxy)-6-(morpholin-4-yl)pyridin-4-yl]-4-methylphenyl]-3-(2,2,2-trifluoroethoxy)pyrrolidine-1-carboxamide], the half-maximal inhibitory concentration (IC50) – broadly, the midpoint of a concentration-inhibition curve – was under 10 nM.
With `Cc1cc(F)c(NC(=O)N2C[C@H](CF)[C@@H](C(F)(F)F)C2)cc1-c1cc(OCCO)nc(N2CCOCC2)c1` (relative stereo) [Example 39, (trans)-N-[2-fluoro-5-[2-(2-hydroxyethoxy)-6-(morpholin-4-yl)pyridin-4-yl]-4-methylphenyl]-3-(fluoromethyl)-4-(trifluoromethyl) pyrrolidine-1-carboxamide] the figure was under 10 nM.
Turning to `Cc1ccc(NC(=O)N2CC[C@@H](CC(F)(F)F)C2)cc1-c1cc(O[C@@H]2CC[C@@H](O)C2)nc(N2CCOCC2)c1` [Example 208, (3S)-N-[3-(2-[[(1R,3R)-3-hydroxycyclopentyl]oxy]-6-(morpholin-4-yl)pyridin-4-yl)-4-methylphenyl]-3-(2,2,2-trifluoroethyl)pyrrolidine-1-carboxamide], the IC50 is under 10 nM.
On to `C/C(=C1/CCN(C(=O)Nc2cc(-c3cc(OCCO)nc(N4CCOCC4)c3)c(C)cc2F)C1)C(F)(F)F` [Example 95, (3E)-N-[2-fluoro-5-[2-(2-hydroxyethoxy)-6-(morpholin-4-yl)pyridin-4-yl]-4-methylphenyl]-3-(1,1,1-trifluoropropan-2-ylidene)pyrrolidine-1-carboxamide], for which the IC50 was under 10 nM.
In the case of `Cc1ccc(NC(=O)N2CC[C@@H](CC(F)(F)F)C2)cc1-c1cc(OC[C@@H](C)O)nc(N2CCO[C@@H](C)C2)c1` [Example 227, (3S)-N-(3-[2-[(2R)-2-hydroxypropoxy]-6-[(2S)-2-methylmorpholin-4-yl]pyridin-4-yl]-4-methylphenyl)-3-(2,2,2-trifluoroethyl)pyrrolidine-1-carboxamide], the IC50 was under 10 nM.
As for `Cc1ccc(NC(=O)N2CC[C@H](OC(F)(F)F)C2)cc1-c1cc(O[C@H](C)[C@@H](C)O)nc(N2CCOCC2)c1` [Example 172, (S)-N-(3-(2-(((2R,3R)-3-hydroxybutan-2-yl)oxy)-6-morpholinopyridin-4-yl)-4-methylphenyl)-3-(trifluoromethoxy)pyrrolidine-1-carboxamide], the figure is under 10 nM.
Consider `Cc1ccc(NC(=O)N2CCC(CC(F)(F)F)C2)cc1-c1cc(OCC(C)CO)nc(N2CCOCC2)c1` (stereo not drawn) [Example 199, N-(3-(2-(3-hydroxy-2-methylpropoxy)-6-morpholinopyridin-4-yl)-4-methylphenyl)-3-(2,2,2-trifluoroethyl)pyrrolidine-1-carboxamide], for which the IC50 was under 10 nM.
`Cc1cc(F)c(NC(=O)N2CCCC(O)(C(F)(F)F)C2)cc1-c1cc(OCCO)nc(N2CCOCC2)c1` (stereo not drawn) [Example 25, N-(2-fluoro-5-(2-(2-hydroxyethoxy)-6-morpholinopyridin-4-yl)-4-methylphenyl)-3-hydroxy-3-(trifluoromethyl)piperidine-1-carboxamide]: the IC50 is 10 to 100 nM.
As for `Cc1cc(F)c(NC(=O)N2C[C@H](C(F)(F)F)C[C@@H]2C)cc1-c1cc(OCCO)nc(N2CCOCC2)c1` (single isomer, unassigned) [Example 61, (cis)-N-[2-fluoro-5-[2-(2-hydroxyethoxy)-6-(morpholin-4-yl)pyridin-4-yl]-4-methylphenyl]-2-methyl-4-(trifluoromethyl)pyrrolidine-1-carboxamide], the figure is under 10 nM; as for `Cc1ccc(NC(=O)N2CC[C@@H](CC(F)(F)F)C2)cc1-c1cc(O[C@@H]2CC[C@H](O)C2)nc(N2CCOCC2)c1` [Example 210, (3S)-N-[3-(2-[[(1R,3S)-3-hydroxycyclopentyl]oxy]-6-(morpholin-4-yl)pyridin-4-yl)-4-methylphenyl]-3-(2,2,2-trifluoroethyl)pyrrolidine-1-carboxamide], under 10 nM.
`Cc1ccc(NC(=O)N2CCC3(CCC3(F)F)C2)cc1-c1cc(OCCO)nc(N2CCOCC2)c1` (single isomer, unassigned) [Example 121, 1,1-difluoro-N-[3-[2-(2-hydroxyethoxy)-6-(morpholin-4-yl)pyridin-4-yl]-4-methylphenyl]-6-azaspiro[3.4]octane-6-carboxamide]: the IC50 is under 10 nM.
With `Cc1ccc(NC(=O)N2CCC(CC(F)(F)F)C2)cc1-c1cc(O[C@H]2CCN(C)C2)nc(N2CCOCC2)c1` (stereo partly drawn) [Example 195, N-(4-methyl-3-(2-(((S)-1-methylpyrrolidin-3-yl)oxy)-6-morpholinopyridin-4-yl)phenyl)-3-(2,2,2-trifluoroethyl)pyrrolidine-1-carboxamide] the figure was under 10 nM.
With `Cc1ccc(NC(=O)N2CC[C@@H](CC(F)(F)F)C2)cc1-c1cc(O[C@@H]2CCC(F)(F)C2)nc(N2CCOCC2)c1` [Example 219, (3S)-N-[3-(2-[[(1R)-3,3-difluorocyclopentyl]oxy]-6-(morpholin-4-yl)pyridin-4-yl)-4-methylphenyl]-3-(2,2,2-trifluoroethyl)pyrrolidine-1-carboxamide], the IC50 is under 10 nM.
With `Cc1ccc(NC(=O)N2CC(O)C(CC(F)(F)F)C2)cc1-c1cc(OCCO)nc(N2CCOCC2)c1` (stereo not drawn) [Example 148, 3-hydroxy-N-[3-[2-(2-hydroxyethoxy)-6-(morpholin-4-yl)pyridin-4-yl]-4-methylphenyl]-4-(2,2,2-trifluoroethyl)pyrrolidine-1-carboxamide] the figure was under 10 nM; with `Cc1cc(F)c(NC(=O)N2CC[C@H](C3CC3)C2)cc1-c1cc(OCCO)nc(N2CCOCC2)c1` (single isomer, unassigned) [Example 47], under 10 nM.
Take `Cc1cc(F)c(NC(=O)N2CCC(C(C)C(F)(F)F)C2)cc1-c1cc(OCCO)nc(N2CCOCC2)c1` (single isomer, unassigned) [Example 100, N-[2-fluoro-5-[2-(2-hydroxyethoxy)-6-(morpholin-4-yl)pyridin-4-yl]-4-methylphenyl]-3-(1,1,1-trifluoropropan-2-yl)pyrrolidine-1-carboxamide]: the IC50 was under 10 nM.
With `Cc1ccc(NC(=O)N2CC[C@H](OC(F)(F)F)C2)cc1-c1cc(OC(C)CO)nc(N2CCOCC2)c1` (stereo in doubt) [Example 153, (3S)-N-[3-(2-[[(2R)-1-hydroxypropan-2-yl]oxy]-6-(morpholin-4-yl)pyridin-4-yl)-4-methylphenyl]-3-(trifluoromethoxy)pyrrolidine-1-carboxamide] the figure was under 10 nM; with `Cc1cc(F)c(NC(=O)NC2CC2C(F)(F)F)cc1-c1cc(OCCO)nc(N2CCOCC2)c1` (stereo not drawn) [Example 43, 1-[2-fluoro-5-[2-(2-hydroxyethoxy)-6-(morpholin-4-yl)pyridin-4-yl]-4-methylphenyl]-3-[2-(trifluoromethyl)cyclopropyl]urea], under 10 nM; with `Cc1cc(F)c(NC(=O)N2CC[C@@H](C(F)(F)F)C2)cc1-c1cnc(OCCO)c(N2CCOCC2)c1` [Example 12], under 10 nM.
As for `Cc1cc(F)c(NC(=O)N2CCC(C(C)C(F)(F)F)C2)cc1-c1cc(OCCO)nc(N2CCOCC2)c1` (single isomer, unassigned) [Example 103, N-[2-fluoro-5-[2-(2-hydroxyethoxy)-6-(morpholin-4-yl)pyridin-4-yl]-4-methylphenyl]-3-(1,1,1-trifluoropropan-2-yl)pyrrolidine-1-carboxamide], the figure is under 10 nM.
Turning to `Cc1cc(F)c(NC(=O)NCC2(C(F)(F)F)CCC2)cc1-c1cc(OCCO)nc(N2CCOCC2)c1` [Example 49, 1-[2-fluoro-5-[2-(2-hydroxyethoxy)-6-(morpholin-4-yl)pyridin-4-yl]-4-methylphenyl]-3-[[1-(trifluoromethyl)cyclobutyl]methyl]urea], the IC50 is under 10 nM.
As for `Cc1cc(F)c(NC(=O)N2CCC(C(F)(F)F)C2C)cc1-c1cc(OCCO)nc(N2CCOCC2)c1` (single isomer, unassigned) [Example 64, N-[2-fluoro-5-[2-(2-hydroxyethoxy)-6-(morpholin-4-yl)pyridin-4-yl]-4-methylphenyl]-2-methyl-3-(trifluoromethyl)pyrrolidine-1-carboxamide], the figure is 100 to 1000 nM; as for `Cc1ccc(NC(=O)N2CCC3(CCC3(F)F)C2)cc1-c1cc(OCCO)nc(N2CCOCC2)c1` (single isomer, unassigned) [Example 122, 1,1-difluoro-N-[3-[2-(2-hydroxyethoxy)-6-(morpholin-4-yl)pyridin-4-yl]-4-methylphenyl]-6-azaspiro[3.4]octane-6-carboxamide], under 10 nM.
As for `Cc1ccc(NC(=O)Nc2cnn(C(C)C)c2)cc1-c1cc(OCCO)nc(N2CCOCC2)c1` [Example 139, 1-[3-[2-(2-hydroxyethoxy)-6-(morpholin-4-yl)pyridin-4-yl]-4-methylphenyl]-3-(1-isopropylpyrazol-4-yl)urea], the figure is under 10 nM.
With `Cc1cc(F)c(NC(=O)N2CC3CCC3(C(F)(F)F)C2)cc1-c1cc(OCCO)nc(N2CCOCC2)c1` (single isomer, unassigned) [Example 82, N-[2-fluoro-5-[2-(2-hydroxyethoxy)-6-(morpholin-4-yl)pyridin-4-yl]-4-methylphenyl]-1-(trifluoromethyl)-3-azabicyclo[3.2.0]heptane-3-carboxamide] the figure was under 10 nM; with `Cc1cc(F)c(NC(=O)N2CC(C)C(C(F)(F)F)C2)cc1-c1cc(OCCO)nc(N2CCOCC2)c1` (single isomer, unassigned) [Example 53, N-[2-fluoro-5-[2-(2-hydroxyethoxy)-6-(morpholin-4-yl)pyridin-4-yl]-4-methylphenyl]-3-methyl-4-(trifluoromethyl)pyrrolidine-1-carboxamide], under 10 nM; with `Cc1cc(F)c(NC(=O)N2CC[C@@H](C3CC3)C2)cc1-c1cc(OCCO)nc(N2CCOCC2)c1` (single isomer, unassigned) [Example 48], under 10 nM.

Source of the values: US20230081390A1, “INHIBITORS OF RAF KINASES” (Kinnate Biopharma Inc., priority 2019, published 2023).
